Structures are written as SMILES.

The source of these data is ChEMBL document CHEMBL1159199, “A new antiplatelet diarylheptanoid from Alpinia blepharocalyx” (1998).

The nature of the first assay: Antiplatelet activity in human whole blood assessed as inhibition of arachidonic acid-induced platelet aggregation at 100 ug/mL relative to control. In kind it is functional.
The inhibition is how much of the control response was suppressed. For the compound `O=C(/C=C(O)/C=C/c1ccc(O)cc1)CCc1ccc(O)cc1`, the inhibition at 100 µg/mL came out at 100%.

With `COc1cc(/C=C/c2ccc(O)cc2)oc(=O)c1`, the inhibition at 100 µg/mL was 100%.

For the compound `COc1cc(O)cc2c1C(=O)CC(c1ccc(O)cc1)O2` (stereo unspecified), the inhibition at 100 µg/mL was 26.2%.

For `O=Cc1ccc(O)cc1` [4-HYDROXYBENZALDEHYDE], the inhibition at 100 µg/mL is 5.4%.

Turning to `O=C(/C=C/c1ccc(O)cc1)CC(=O)/C=C/c1ccc(O)cc1` [BISDEMETHOXYCURCUMIN], the inhibition at 100 µg/mL came to 46.8%.

For the compound `COc1cc(O)cc(O)c1C(=O)/C=C/c1ccccc1` [CARDAMOMIN], the inhibition at 100 µg/mL was determined as 100%.

Consider `COc1cc(/C=C/c2ccccc2)oc(=O)c1` [DESMETHOXYYANGONIN], for which the inhibition at 100 µg/mL was 100%.

`COc1cc(O)cc(O)c1C(=O)/C=C/c1ccc(O)cc1` [HELICHRYSETIN]: the inhibition at 100 µg/mL came to 100%.

Turning to `COc1ccc2c(c1)c(CC(=O)O)c(C)n2C(=O)c1ccc(Cl)cc1` [INDOMETHACIN], the inhibition at 100 µg/mL was 100%.

Another assay is described as follows: Antiplatelet activity in human whole blood assessed as inhibition of ADP-induced platelet aggregation at 100 ug/mL relative to control. In kind it is functional.
`O=C(/C=C(O)/C=C/c1ccc(O)cc1)CCc1ccc(O)cc1`: the inhibition at 100 µg/mL came to 100%.

Turning to `COc1cc(/C=C/c2ccc(O)cc2)oc(=O)c1`, the inhibition at 100 µg/mL is 100%.

As to `COc1cc(O)cc2c1C(=O)CC(c1ccc(O)cc1)O2` (stereo unspecified), the inhibition at 100 µg/mL was 14.5%.

For the compound `O=Cc1ccc(O)cc1` [4-HYDROXYBENZALDEHYDE], the inhibition at 100 µg/mL came to 39.8%.

Consider `O=C(/C=C/c1ccc(O)cc1)CC(=O)/C=C/c1ccc(O)cc1` [BISDEMETHOXYCURCUMIN], for which the inhibition at 100 µg/mL stood at 35.4%.

Consider `COc1cc(O)cc(O)c1C(=O)/C=C/c1ccccc1` [CARDAMOMIN], for which the inhibition at 100 µg/mL was found to be 62.9%.

With `COc1cc(/C=C/c2ccccc2)oc(=O)c1` [DESMETHOXYYANGONIN], the inhibition at 100 µg/mL was found to be 43.8%.

In the case of `COc1cc(O)cc(O)c1C(=O)/C=C/c1ccc(O)cc1` [HELICHRYSETIN], the inhibition at 100 µg/mL came out at 48.9%.

Take `COc1ccc2c(c1)c(CC(=O)O)c(C)n2C(=O)c1ccc(Cl)cc1` [INDOMETHACIN]: the inhibition at 100 µg/mL came out at 36.7%.

A short description of another assay: Antiplatelet activity in human whole blood assessed as inhibition of ristocetin-induced platelet aggregation at 100 ug/mL relative to control. In kind it is functional.
On to `O=C(/C=C(O)/C=C/c1ccc(O)cc1)CCc1ccc(O)cc1`, for which the inhibition at 100 µg/mL was determined as 62.8%.

Take `COc1cc(/C=C/c2ccc(O)cc2)oc(=O)c1`: the inhibition at 100 µg/mL came to 100%.

With `COc1cc(O)cc2c1C(=O)CC(c1ccc(O)cc1)O2` (stereo unspecified), the inhibition at 100 µg/mL worked out at 37.2%.

In the case of `O=Cc1ccc(O)cc1` [4-HYDROXYBENZALDEHYDE], the inhibition at 100 µg/mL worked out at 11%.

Take `O=C(/C=C/c1ccc(O)cc1)CC(=O)/C=C/c1ccc(O)cc1` [BISDEMETHOXYCURCUMIN]: the inhibition at 100 µg/mL was determined as 38.3%.

`COc1cc(O)cc(O)c1C(=O)/C=C/c1ccccc1` [CARDAMOMIN]: the inhibition at 100 µg/mL worked out at 0%.

As for `COc1cc(/C=C/c2ccccc2)oc(=O)c1` [DESMETHOXYYANGONIN], the inhibition at 100 µg/mL came to 33.3%.

Turning to `COc1cc(O)cc(O)c1C(=O)/C=C/c1ccc(O)cc1` [HELICHRYSETIN], the inhibition at 100 µg/mL stood at 63.8%.

Regarding `COc1ccc2c(c1)c(CC(=O)O)c(C)n2C(=O)c1ccc(Cl)cc1` [INDOMETHACIN], the inhibition at 100 µg/mL was 52.1%.

A short description of the next assay: Antiplatelet activity in human whole blood assessed as inhibition of collagen-induced platelet aggregation at 100 ug/mL relative to control. In kind it is functional.
Regarding `O=C(/C=C(O)/C=C/c1ccc(O)cc1)CCc1ccc(O)cc1`, the inhibition at 100 µg/mL came to 77.3%.

For `COc1cc(/C=C/c2ccc(O)cc2)oc(=O)c1`, the inhibition at 100 µg/mL stood at 86.9%.

In the case of `COc1cc(O)cc2c1C(=O)CC(c1ccc(O)cc1)O2` (stereo unspecified), the inhibition at 100 µg/mL came to 57.7%.

Regarding `O=Cc1ccc(O)cc1` [4-HYDROXYBENZALDEHYDE], the inhibition at 100 µg/mL is 23.6%.

Regarding `O=C(/C=C/c1ccc(O)cc1)CC(=O)/C=C/c1ccc(O)cc1` [BISDEMETHOXYCURCUMIN], the inhibition at 100 µg/mL worked out at 76.3%.

As to `COc1cc(O)cc(O)c1C(=O)/C=C/c1ccccc1` [CARDAMOMIN], the inhibition at 100 µg/mL is 56%.

Turning to `COc1cc(/C=C/c2ccccc2)oc(=O)c1` [DESMETHOXYYANGONIN], the inhibition at 100 µg/mL is 48.9%.

For `COc1cc(O)cc(O)c1C(=O)/C=C/c1ccc(O)cc1` [HELICHRYSETIN], the inhibition at 100 µg/mL is 32.3%.

On to `COc1ccc2c(c1)c(CC(=O)O)c(C)n2C(=O)c1ccc(Cl)cc1` [INDOMETHACIN], for which the inhibition at 100 µg/mL stood at 71.1%.
